These are literature values, as cited in patent US8105627B2, “Extended release venlafaxine tablet formulation” (priority 2003, dated 2012).

Where a name gives a salt, the structure may show the parent alone.

For the data set the following is noted: plural daily dosing regimen.

For `COc1ccc(C(CN(C)C)C2(O)CCCCC2)cc1` (centres unmarked) [venlafaxine hydrochloride, 1-[(2-dimethylamino)-1-(4-methoxyphenyl)ethyl]cyclohexanol], the patients experiencing nausea entry was “about forty five percent” and the “patients in whom vomiting occurs” value is recorded as “about seventeen percent”.
